The target in assay [1] is T1, hENPP2 (UniProtKB/SwissProt Q13822) (Homo sapiens (Human), UniProt Q13822). Description: fluorescent hENPP2 biochemical assay, FS-3 as substrate. The settings on record: read-out: FS3-IC50. The protocol:
Compound IC50 values are determined in a fluorescent hENPP2 (UniProtKB/SwissProt Sequence ref Q13822) biochemical assay using the fluorogenic autotaxin substrate FS-3 as substrate. FS-3 is a doubly labeled analog of LPC wherein the fluorophore is quenched through intramolecular energy transfer. Without hENPP2, the emission of the probe is quenched. If the substrate is hydrolyzed by hENPP2, the emission of the probe is not quenched anymore resulting in a fluorescence increase.
The enzyme is diluted in 50 mM Tris-HCl pH 8.0, 250 mM NaCl, 5 mM KCl, 1 mM MgCl2, 1 mM CaCl2, 0.1% fatty acid free BSA in a total volume of 20 μL. Enzyme mixture is added to compounds and the resulting mixture is incubated for 30 min at room temperature under shaking. The reaction is started by the addition of 20 μL of 0.75 μM FS-3 diluted in the same buffer as described above and the mixture is incubated at 30° C. for 30 min. Fluorescence is read on the Envision (Excitation 485 nm, emission 520 nm).

The target in assay [2] is T1, hENPP2. The experiment in a line: hENPP2 biochemical assay, LPC as substrate. The conditions noted are these: LPC (palmitoyl 16:0) as substrate. The method in brief:
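Human ENPP2 in 50 mM Tris-HCl pH 8.5, 500 mM NaCl, 5 mM KCl, 10 mM CaCl2, 0.1% fatty-acid-free BSA, reacted 30 min at 37 °C with LPC 16:0 (150 µM solution added 1:1). Released choline measured via choline oxidase/peroxidase/TOOS/4-aminoantipyrine quinoneimine dye at 555 nm; IC50 reported.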

The results in this text go back to patent US9670204B2, “Compounds and pharmaceutical compositions thereof for the treatment of inflammatory disorders” (Galapagos NV, priority 2013, dated 2017).

A value given as a limit tells only on which side of the number the result lay.

For orientation: IC50 means the point on the concentration scale where inhibition reaches its midpoint.

Turning to `CCc1nc2ccc(N3CCN(CC(=O)N4CC(O)C4)CC3)cn2c1N(C)c1nc(-c2ccc(F)cc2)cs1` [Compound 24, 2-(4-(2-ethyl-3-((4-(4-fluorophenyl)thiazol-2-yl)(methyl)amino)imidazo[1,2-a]pyridin-6-yl)piperazin-1-yl)-1-(3-hydroxyazetidin-1-yl)ethanone], the IC50 in assay [1] was in the range of 0.01 to 100 nM; in assay [2], 100 to 500 nM.

Turning to `CCc1nc2ccc(N3CCN(C(=O)C4CCN(S(C)(=O)=O)C4)CC3)cn2c1N(C)c1nc(-c2ccc(F)cc2)cs1` (centres unmarked) [Compound 49, (4-(2-ethyl-3-((4-(4-fluorophenyl)thiazol-2-yl)(methyl)amino)imidazo[1,2-a]pyridin-6-yl)piperazin-1-yl)(1-(methylsulfonyl)pyrrolidin-3-yl) methanone], the 50% inhibitory concentration (IC50) is 0.01 to 100 nM in assay [1] and above 1000 nM in assay [2].

As for `CCc1nc2ccc(N3CCN(C(=O)C4CCNC4)CC3)cn2c1N(C)c1nc(-c2ccc(F)cc2)cs1` (centres unmarked) [Compound 47, (4-(2-ethyl-3-((4-(4-fluorophenyl)thiazol-2-yl)(methyl)amino)imidazo[1,2-a]pyridin-6-yl)piperazin-1-yl)(pyrrolidin-3-yl)methanone], the IC50 in assay [1] was 0.01 to 100 nM; in assay [2] it was above 1000 nM.

For `CCc1nc2ccc(C3CCN(C(=O)CN4CCCC4)CC3)cn2c1N(C)c1nc(-c2ccc(F)cc2)cs1` [Compound 126, 1-(4-(2-ethyl-3-((4-(4-fluorophenyl)thiazol-2-yl)(methyl)amino)imidazo[1,2-a]pyridin-6-yl)piperidin-1-yl)-2-(pyrrolidin-1-yl) ethanone], the concentration for half-maximal inhibition (IC50) in assay [1] lay in the range of 0.01 to 100 nM; in assay [2], 100 to 500 nM.

Take `CCc1nc2ccc(N3CCN(C(=O)C(C)=O)CC3)cn2c1N(C)c1nc(-c2ccc(F)cc2)cs1` [Compound 200, 1-(4-(2-ethyl-3-((4-(4-fluorophenyl)thiazol-2-yl)(methyl)amino)imidazo[1,2-a]pyridin-6-yl)piperazin-1-yl)propane-1,2-dione]: the results for the IC50 in assay [1] and in assay [2] were 0.01 to 100 nM and above 1000 nM, respectively.

With `CCc1nc2ccc(N3CCN(C(=O)OCCO)CC3)cn2c1N(C)c1nc(-c2ccc(F)cc2)cs1` [Compound 43, 2-hydroxyethyl 4-(2-ethyl-3-((4-(4-fluorophenyl)thiazol-2-yl)(methyl)amino)imidazo[1,2-a]pyridin-6-yl)piperazine-1-carboxylate], the IC50 was 0.01 to 100 nM in assay [1] and above 1000 nM in assay [2].

As for `CCc1nc2ccc(C3CCN(S(C)(=O)=O)CC3)cn2c1N(C)c1nc(-c2ccc(F)cc2)c(CC#N)s1` [Compound 186, 2-(2-((2-ethyl-6-(1-(methylsulfonyl)piperidin-4-yl)imidazo[1,2-a]pyridin-3-yl)(methyl)amino)-4-(4-fluorophenyl)thiazol-5-yl)acetonitrile], the half-maximal inhibitory concentration (IC50) was 0.01 to 100 nM in assay [1] and above 1000 nM in assay [2].

`CCc1nc2ccc(N3CCN(S(=O)(=O)CC(N)=O)CC3)cn2c1N(C)c1nc(-c2ccc(F)cc2)cs1` [Compound 61, 2-(4-(2-ethyl-3-((4-(4-fluorophenyl)thiazol-2-yl)(methyl)amino)imidazo[1,2-a]pyridin-6-yl)piperazin-1-ylsulfonyl)acetamide]: the values for the concentration for half-maximal inhibition (IC50) in assay [1] and in assay [2] were 0.01 to 100 nM and above 1000 nM, respectively.

For `CCc1nc2ccc(N3CCN(S(=O)(=O)CC(=O)OC)CC3)cn2c1N(C)c1nc(-c2ccc(F)cc2)cs1` [Compound 59, methyl 2-(4-(2-ethyl-3-((4-(4-fluorophenyl)thiazol-2-yl)(methyl)amino)imidazo[1,2-a]pyridin-6-yl)piperazin-1-ylsulfonyl)acetate], the 50% inhibitory concentration (IC50) in assay [1] is 0.01 to 100 nM; in assay [2], above 1000 nM.

Turning to `CCOC(=O)CN1CCN(c2ccc3nc(CC)c(N(C)c4nc(-c5ccc(F)cc5)cs4)n3c2)C(=O)C1` [Compound 64, ethyl 2-(4-(2-ethyl-3-((4-(4-fluorophenyl)thiazol-2-yl)(methyl)amino)imidazo[1,2-a]pyridin-6-yl)-3-oxopiperazin-1-yl)acetate], the IC50 in assay [1] was 0.01 to 100 nM; in assay [2] it was above 1000 nM.
